By inhibition is commonly meant the drop in the measured response relative to a control, in per cent. Higher therefore signals strong suppression.

For one test, the target named is T1, wild type (wt) beta-glucocerebrosidase (Homo sapiens, UniProt P04062).
T1 construct: The lysates were used as a source for wild type (wt) beta-glucocerebrosidase; endogenous in cells; host or cells: HL60 (ECACC No. 98070106) lysate
T1 sequence (P04062 40-536): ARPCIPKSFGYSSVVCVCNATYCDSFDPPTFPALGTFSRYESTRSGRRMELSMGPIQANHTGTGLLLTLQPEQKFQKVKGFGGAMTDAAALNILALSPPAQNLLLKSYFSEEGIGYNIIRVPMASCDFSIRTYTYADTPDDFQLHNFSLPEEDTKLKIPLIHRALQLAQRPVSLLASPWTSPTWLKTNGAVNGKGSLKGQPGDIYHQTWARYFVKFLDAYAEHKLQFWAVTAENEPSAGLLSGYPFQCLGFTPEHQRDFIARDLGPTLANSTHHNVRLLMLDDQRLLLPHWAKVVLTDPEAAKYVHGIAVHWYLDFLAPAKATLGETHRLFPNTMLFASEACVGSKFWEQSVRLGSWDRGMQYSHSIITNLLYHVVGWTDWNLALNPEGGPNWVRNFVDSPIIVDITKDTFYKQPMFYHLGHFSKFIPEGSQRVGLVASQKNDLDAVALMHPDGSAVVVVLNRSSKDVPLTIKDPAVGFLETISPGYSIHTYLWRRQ
Kind of test: beta-glucocerebrosidase activity assay in HL60 lysate (4MU-β-D-glc).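 Also: fluorometric read-out of 4MU liberated from the substrate (ex 360 nm, em 450 nm) after 37 °C incubation, reaction stopped with sodium carbonate.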 To be noted: at a concentration of 100 μM, 0.5 mM 4MU-β-D-glc. It is filed as biochemical.
For the compound `OC[C@H]1[C@@H](O)[C@H](O)[C@H]2[C@H](O)[C@@H](O)CN21` [Compound 129, (1R,2R,3S,6S,7S,7aR)-3-(hydroxymethyl)hexahydro-1H-pyrrolizine-1,2,6,7-tetraol], the inhibition at 100 µM is over 50%.

The compound `OC[C@@H]1[C@@H](O)[C@H](O)[C@@H](CO)N1CCOCc1ccccc1` [Compound 556, (2R,3R,4R,5R)-1-(2-(benzyloxy)ethyl)-2,5-bis(hydroxymethyl)pyrrolidine-3,4-diol] gave an inhibition at 100 µM of over 50%.

The compound `OC[C@H]1CNC[C@@H](O)[C@@H]1O` [Compound 279, (3R,4R,5R)-5-(Hydroxymethyl)-3,4-piperidinediol] showed an inhibition at 100 µM of over 50%.

In the case of `OC[C@@H]1[C@@H](O)[C@H](O)[C@@H](CO)N1CCCOc1ccccc1` [Compound 343, (2R,3R,4R,5R)-2,5-bis(hydroxymethyl)-1-(3-phenoxypropyl)pyrrolidine-3,4-diol], the inhibition at 100 µM is over 50%.

Consider `OC[C@@H]1NC[C@H](O)[C@H]1O` [Compound 160, (2S,3S,4S)-2-(hydroxymethyl)pyrrolidine-3,4-diol], for which the inhibition at 100 µM was over 50%.

For the compound `OCC1OC(CO)(O[C@H]2[C@H](O)[C@H](O)[C@H](CO)N[C@@H]2CO)C(O)C1O` (stereo partly drawn) [Compound 77, (2S,3R,4R,5R,6R)-5-(3,4-dihydroxy-2,5-bis(hydroxymethyl)tetrahydrofuran-2-yloxy)-2,6-bis(hydroxymethyl)piperidine-3,4-diol], the inhibition at 100 µM was over 50%.

Turning to `O=C(O)CN1C[C@@H](CO)[C@H](O)[C@@H](O)C1` [Compound 451, 2-((3S,4S,5S)-3,4-dihydroxy-5-(hydroxymethyl)piperidin-1-yl)acetic acid], the inhibition at 100 µM was over 50%.

`CCCCNC(=O)C1N[C@@H](C)[C@H](O)[C@@H](O)[C@H]1O` (stereo partly drawn) [Compound 265, (3S,4R,5S,6S)-N-butyl-3,4,5-trihydroxy-6-methylpiperidine-2-carboxamide] had an inhibition at 100 µM of over 50%.

As to `OC[C@@H]1CNC[C@@H](O)[C@H]1O` [Compound 219, (3R,4S,5S)-5-(hydroxymethyl)piperidine-3,4-diol], the inhibition at 100 µM is over 50%.

The compound `OC[C@@H]1CNC[C@H](O)[C@H]1O` [Compound 641, (3S,4S,5S)-5-(hydroxymethyl)piperidine-3,4-diol] registered an inhibition at 100 µM of over 50%.

With `O=C(O)CN1C[C@H](CO)[C@@H](O)[C@H](O)C1` [Compound 450, 2-((3R,4R,5R)-3,4-dihydroxy-5-(hydroxymethyl)piperidin-1-yl)acetic acid], the inhibition at 100 µM was over 50%.

In turn, `CCCCCCCCCN1C[C@@H](O)[C@H](O)[C@H](O)[C@@H](O)C1` [Compound 736, (3R,4S,5R,6S)-1-nonylazepane-3,4,5,6-tetraol] returned an inhibition at 100 µM of over 50%.

Compound `OCCCCCCCCCN1C[C@H](O)[C@@H](O)[C@H](O)[C@H]1CO` [Compound 724, (2R,3R,4R,5S)-2-(hydroxymethyl)-1-(9-hydroxynonyl)piperidine-3,4,5-triol] had an inhibition at 100 µM of over 50%.

Compound `OCC1OC(O[C@@H]2[C@@H](O)[C@H](O)[C@]3(O)CC[C@H]2N3)C(O)C(O)C1O` (stereo partly drawn) [Compound 105, (1R,2S,3S,4S,5R)-4-(3,4,5-trihydroxy-6-(hydroxymethyl)tetrahydro-2H-pyran-2-yloxy)-8-azabicyclo[3.2.1]octane-1,2,3-triol] came in with an inhibition at 100 µM of over 50%.

As for `CCCCCCCCCN1[C@H](CO)[C@@H](O)[C@H](O)[C@H]1CO` [Compound 555, (2R,3R,4R,5R)-2,5-bis(hydroxymethyl)-1-nonylpyrrolidine-3,4-diol], the inhibition at 100 µM is over 50%.

For the compound `O=C(CCCCO)CCCCCCC[C@@H](O)[C@H]1N[C@H](CO)[C@@H](O)[C@@H]1O` [Compound 226, (R)-13-((2R,3R,4R,5R)-3,4-dihydroxy-5-(hydroxymethyl)pyrrolidin-2-yl)-1,13-dihydroxytridecan-5-one], the inhibition at 100 µM is over 50%.

In turn, `C[C@@H]1CCC[C@@H]2[C@@H](O)[C@@H](O)[C@@H](CO)N12` [Compound 60, (1R,2S,3R,5R,8aR)-3-(hydroxymethyl)-5-methyloctahydroindolizine-1,2-diol] yielded an inhibition at 100 µM of over 50%.

`O=C(NC[C@H]1[C@@H](O)[C@@H](O)CN1Cc1ccc(-c2ccccc2)cc1)c1ccc(-c2ccccc2)cc1` [Compound 701, N-(((2S,3R,4S)-1-(biphenyl-4-ylmethyl)-3,4-dihydroxypyrrolidin-2-yl)methyl)biphenyl-4-carboxamide] displayed an inhibition at 100 µM of over 50%.

The compound `CCCCCCCCCN1C[C@@H](O)[C@H](O)[C@H]1CO` [Compound 568, (2R,3R,4R)-2-(hydroxymethyl)-1-nonylpyrrolidine-3,4-diol] returned an inhibition at 100 µM of over 50%.

Consider `OC[C@H]1[C@@H](O)[C@H](O)CN1CC1CCCCC1` [Compound 320, (2S,3R,4R)-1-(cyclohexylmethyl)-2-(hydroxymethyl)pyrrolidine-3,4-diol], for which the inhibition at 100 µM was over 50%.

Compound `CC(O)CC[C@@H]1[C@@H](O)C[C@@H]2[C@H](O)[C@H](O)[C@@H](CO)N21` (stereo partly drawn) [Compound 66, (1S,2R,3R,5R,6S,7aR)-5-(3-hydroxybutyl)-3-(hydroxymethyl)hexahydro-1H-pyrrolizine-1,2,6-triol] returned an inhibition at 100 µM of over 50%.

On to `O=C(NC[C@@H]1[C@@H](O)[C@@H](O)CN1Cc1ccc(-c2ccccc2)cc1)c1ccccc1` [Compound 649, N-(((2R,3R,4S)-1-(biphenyl-4-ylmethyl)-3,4-dihydroxypyrrolidin-2-yl)methyl)benzamide], for which the inhibition at 100 µM was over 50%.

The compound `OC1C[C@@]2(O)N[C@@H]1C[C@H](O)[C@H]2O` (stereo partly drawn) [Compound 43, (1S,2R,3S,5R)-8-azabicyclo[3.2.1]octane-1,2,3,6-tetraol] displayed an inhibition at 100 µM of over 50%.

`C[C@@H]1NC(C(=O)NCc2ccccc2)[C@H](O)[C@H](O)[C@H]1O` (stereo partly drawn) [Compound 267, (3S,4R,5S,6S)-N-benzyl-3,4,5-trihydroxy-6-methylpiperidine-2-carboxamide]: the inhibition at 100 µM is over 50%.

`O[C@H]1[C@H](O)[C@H](O)CN(CCCCCOCC23CC4CC(CC(C4)C2)C3)C[C@H]1O` [Compound 766, (3R,4R,5R,6R)-1-(5-(adamantan-1-yl-methoxy)-pentyl)azepane-3,4,5,6-tetraol] displayed an inhibition at 100 µM of over 50%.

The compound `CCCCN1C[C@H](CO)[C@@H](O)[C@H](O)C1` [Compound 419, (3R,4R,5R)-1-butyl-5-(hydroxymethyl)piperidine-3,4-diol] yielded an inhibition at 100 µM of over 50%.

`NC[C@H]1[C@@H](O)[C@@H](O)CN1Cc1ccc(-c2ccccc2)cc1` [Compound 686, (2S,3R,4S)-2-(aminomethyl)-1-(biphenyl-4-ylmethyl)pyrrolidine-3,4-diol] gave an inhibition at 100 µM of over 50%.

As to `OCCCCCCCCCN1[C@H](CO)[C@@H](O)[C@H](O)[C@H]1CO` [Compound 557, (2R,3R,4R,5R)-2,5-bis(hydroxymethyl)-1-(9-hydroxynonyl)pyrrolidine-3,4-diol], the inhibition at 100 µM is over 50%.

In the case of `OC[C@@H]1[C@@H](O)[C@H](O)CN1CCCOc1ccccc1` [Compound 349, (2R,3R,4R)-2-(hydroxymethyl)-1-(3-phenoxypropyl)pyrrolidine-3,4-diol], the inhibition at 100 µM was over 50%.

As to `OCCN1C[C@H](CO)[C@@H](O)[C@H](O)C1` [Compound 420, (3R,4R,5R)-1-(2-hydroxyethyl)-5-(hydroxymethyl)piperidine-3,4-diol], the inhibition at 100 µM is over 50%.

Take `OC[C@@H]1[C@@H](O)[C@H](O)[C@@H]2[C@@H](O)CCN21` [Compound 17, (1R,2R,3R,7S,7aS)-3-(hydroxymethyl)hexahydro-1H-pyrrolizine-1,2,7-triol]: the inhibition at 100 µM is over 50%.

`OCCN1C[C@@H](CO)[C@H](O)[C@@H](O)C1` [Compound 640, (3S,4S,5S)-1-(2-hydroxyethyl)-5-(hydroxymethyl)piperidine-3,4-diol]: the inhibition at 100 µM was over 50%.

In the case of `O[C@@H]1[C@@H](O)[C@H](O)[C@]2(O)C[C@@H](O)[C@H]1N2` [Compound 33, (1R,2S,3R,4S,5R,6R)-8-azabicyclo[3.2.1]octane-1,2,3,4,6-pentaol], the inhibition at 100 µM was over 50%.

A further test has as its target T2, wild type (wt) lysosomal alpha-glucosidase (Homo sapiens, UniProt P10253).
T2 construct: The lysates were used as a source for wild type (wt) lysosomal alpha-glucosidase; endogenous in cells; host or cells: HL60 (ECACC No. 98070106) lysate
Nature of the test: alpha-glucosidase activity assay in HL60 lysate (4MU-α-D-glc).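 Also: fluorometric rate of 4MU product release read at 360 nm excitation and 450 nm emission, reactions run at 37 °C in citric phosphate buffer.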 It is filed as biochemical. The following applies: at a concentration of 100 uM, 0.5 mM 4MU-α-D-glc, pH 4.5.
As for `OC[C@@H]1[C@@H](O)[C@H](O)[C@@H](CO)N1CCOCc1ccccc1` [Compound 556, (2R,3R,4R,5R)-1-(2-(benzyloxy)ethyl)-2,5-bis(hydroxymethyl)pyrrolidine-3,4-diol], the inhibition at 100 µM is over 50%.

In turn, `OC[C@@H]1[C@@H](O)[C@H](O)[C@@H](CO)N1CCCOc1ccccc1` [Compound 343, (2R,3R,4R,5R)-2,5-bis(hydroxymethyl)-1-(3-phenoxypropyl)pyrrolidine-3,4-diol] showed an inhibition at 100 µM of over 50%.

In turn, `OC[C@@H]1NC[C@H](O)[C@H]1O` [Compound 160, (2S,3S,4S)-2-(hydroxymethyl)pyrrolidine-3,4-diol] yielded an inhibition at 100 µM of over 50%.

Consider `OCCCCCCCCCN1C[C@H](O)[C@@H](O)[C@H](O)[C@H]1CO` [Compound 724, (2R,3R,4R,5S)-2-(hydroxymethyl)-1-(9-hydroxynonyl)piperidine-3,4,5-triol], for which the inhibition at 100 µM is over 50%.

In turn, `OC[C@H]1NC[C@H](O)[C@@H](O)[C@@H]1O` [Compound 193, (2R,3R,4R,5S)-2-(hydroxymethyl)piperidine-3,4,5-triol] had an inhibition at 100 µM of over 50%.

The compound `OC[C@@H]1NC[C@](O)(CO)[C@H]1O` [Compound 202, (2S,3S,4S)-2,4-bis(hydroxymethyl)pyrrolidine-3,4-diol] had an inhibition at 100 µM of over 50%.

For `OCC1OC(O[C@H]2CN[C@H](CO)[C@@H](O)[C@@H]2O)C(O)C(O)C1O` (stereo partly drawn) [Compound 121, 2-((3S,4S,5R,6R)-4,5-dihydroxy-6-(hydroxymethyl)piperidin-3-yloxy)-6-(hydroxymethyl)tetrahydro-2H-pyran-3,4,5-triol], the inhibition at 100 µM was over 50%.

The record behind these values is US20110237538A1, “TREATMENT OF LYSOSOMAL STORAGE DISORDERS AND OTHER PROTEOSTATIC DISEASES” (SUMMIT CORPORATION PLC, priority 2008, published 2011).
